Literature values in patent publication US20250090695A1, “IMMUNOSTIMULANT-CYTOTOXIC CONJUGATE COMPOSITION AND METHODS FOR CANCER TREATMENT” (The Research Foundation for the State University of New York, priority 2022, published 2025).

Assays:
[1] = patients; versus 11.2 months with placebo; cited from earlier work
[2] = metastatic setting; cited from earlier work

Radium-223
Overall survival [1]: 14 months

CNC(=O)c1ccc(N2C(=S)N(c3ccc(C#N)c(C(F)(F)F)c3)C(=O)C2(C)C)cc1F [enzalutamide]
Overall survival extension [2]: 4-5 months
